# Measurements as given in publication PMC10442743 (Dalton Transactions (Cambridge, England : 2003), 2023).
# System: L929
# Assay: MTT cytotoxicity assay, L929 fibroblasts (and selectivity index)
# Format: cell-based, mouse
# Details: 24 h; IC50 L929 divided by average IC50 of the breast cancer cell lines
# Description: (§1) The cytotoxicity of 1–11CA was assessed against human breast cancer MCF-7 and MDA-MB-231 cells, and non-tumorigenic adherent mouse fibroblast connective tissue L929 cells using the MTT assay after 24 and 72 h (Tables S5 ^† and Table 1, respectively).
# (§2) Then, necessary dilutions were made using the supplement DMEM, to prepare the range of tested concentrations. Since DMSO was used to solubilize the compounds, a supplemented DMEM + DMSO (at the same percentage as in the sequential dilutions) was considered as a control in the 3-[4,5-dimetylthiazole-2-yl]-2,5-diphenyltetrazolium bromide (MTT) assay.
# (§3) L929, MCF-7, and MDA-MB-231 cell lines were cultured in DMEM supplemented with 10% (v/v) FBS and 1% (v/v) of penicillin–streptomycin. The cells were incubated in a humidified chamber at 37 °C under saturated air with a 5% CO2 atmosphere. Cells were passed at 80%–90% of confluency with 0.25% (w/v) trypsin and the cell culture media was changed every 2–3 days.
# (§4) The compounds were tested on two breast cancer cell lines (MCF-7 and MDA-MB-231) and L929 fibroblasts, used as a reference for the safety evaluation according to ISO 10993-1:2009 “Biological evaluation of medical devices”. Cells were seeded on sterile 96-well plates at 50 000 cells per well (L929) and 20 000 cells per well (MCF-7 and MDA-MB-231) in supplemented DMEM medium (100 μL) for 24 h. The culture medium was removed and new media containing different concentrations of the compounds (0–1000 μM) was added to the wells (100 μL). Control cells were incubated under the same conditions in the absence of a compound. Cells were incubated for 24 and 72 h under the same conditions described above. Then, the medium was removed, and the cells were incubated with 3-(4,5-dimethylthiazol-2-yl)-2,5-diphenyltetrazolium bromide (MTT; 0.5 mg mL^−1) for 3 h. After this time, the medium was removed, and formazan crystals were solubilized with DMSO (100 μL per well). The absorbance in each well was read on a SynergyTM HT Multimode microplate reader (BioTek Instruments; Winooski, VT, USA) at 570 and 630 nm (for background correction), and the cell viability was calculated according to the following equation (eqn (1)):1 [drawing 3] where OD570(sample) and OD630(sample) are the optical densities of the solutions containing the compounds and OD570(control) and OD630(control) are controls without compound.
# (§5) Each apoptosis value determination represents the mean ± standard deviation of 2 independent assays. The IC50 values were obtained using GraphPad Prism software and ANOVA (analysis of variance) was performed to determine the statistical difference between the IC50 values of different cell lines.
row,SMILES,SI (selectivity index)
1,Cc1c(C)c(C)[c-](C)c1C.[Cl][Ru+]([PH]12CN3CN(CN(C3)C1)C2)[PH]12CN3CN(CN(C3)C1)C2 [Compound 2],1.6
2,C[NH+](C)Cc1ccccc1.[Cl-].[Cl][Ru]([Cl])[PH]12CN3CN(CN(C3)C1)C2 [Compound 3],1.8
3,Cc1ccc(C(C)C)cc1.[Br][Ru]([Br])[PH]12CN3CN(CN(C3)C1)C2 [Compound 6],1.8
4,Cc1ccccc1.[Cl][Ru]([Cl])[PH](c1ccccc1)(c1ccccc1)c1ccccc1 [Compound 9],2.3

# Same assay, conditions: 24 h exposure, MTT; read-out: IC50 (µM) (average ± standard deviation) 24 h L929
row,SMILES,IC50
1,Cc1c(C)c(C)[c-](C)c1C.[Cl][Ru+]([PH]12CN3CN(CN(C3)C1)C2)[PH]12CN3CN(CN(C3)C1)C2 [Compound 2],537 ± 29 µM
2,C[NH+](C)Cc1ccccc1.[Cl-].[Cl][Ru]([Cl])[PH]12CN3CN(CN(C3)C1)C2 [Compound 3],749 ± 45 µM
3,Cc1ccc(C(C)C)cc1.[Br][Ru]([Br])[PH]12CN3CN(CN(C3)C1)C2 [Compound 6],670 ± 60 µM
4,Cc1ccccc1.[Cl][Ru]([Cl])[PH](c1ccccc1)(c1ccccc1)c1ccccc1 [Compound 9],544 ± 12 µM

# Same assay, conditions: 72 h; IC50 L929 divided by average IC50 of the breast cancer cell lines
row,SMILES,SI (selectivity index)
1,Cc1c(C)c(C)[c-](C)c1C.[Cl][Ru+]([PH]12CN3CN(CN(C3)C1)C2)[PH]12CN3CN(CN(C3)C1)C2 [Compound 2],1.1
2,C[NH+](C)Cc1ccccc1.[Cl-].[Cl][Ru]([Cl])[PH]12CN3CN(CN(C3)C1)C2 [Compound 3],1.5
3,Cc1ccc(C(C)C)cc1.[Br][Ru]([Br])[PH]12CN3CN(CN(C3)C1)C2 [Compound 6],1.2
4,Cc1ccccc1.[Cl][Ru]([Cl])[PH](c1ccccc1)(c1ccccc1)c1ccccc1 [Compound 9],1.5

# Same assay, conditions: 72 h exposure, MTT; read-out: IC50 (μM) (average ± standard deviation) 72 h L929
row,SMILES,IC50
1,Cc1c(C)c(C)[c-](C)c1C.[Cl][Ru+]([PH]12CN3CN(CN(C3)C1)C2)[PH]12CN3CN(CN(C3)C1)C2 [Compound 2],64 ± 4 µM
2,C[NH+](C)Cc1ccccc1.[Cl-].[Cl][Ru]([Cl])[PH]12CN3CN(CN(C3)C1)C2 [Compound 3],84 ± 5 µM
3,Cc1ccc(C(C)C)cc1.[Br][Ru]([Br])[PH]12CN3CN(CN(C3)C1)C2 [Compound 6],82 ± 3 µM
4,Cc1ccccc1.[Cl][Ru]([Cl])[PH](c1ccccc1)(c1ccccc1)c1ccccc1 [Compound 9],70 ± 4 µM

# System: MCF-7
# Assay: MTT cytotoxicity assay, MCF-7 cells
# Format: cell-based, human
# Details: 24 h exposure, MTT; read-out: IC50 (µM) (average ± standard deviation) 24 h MCF-7
# Description: as §1, §2, §3, §4, §5
row,SMILES,IC50
1,Cc1c(C)c(C)[c-](C)c1C.[Cl][Ru+]([PH]12CN3CN(CN(C3)C1)C2)[PH]12CN3CN(CN(C3)C1)C2 [Compound 2],403 ± 9 µM
2,C[NH+](C)Cc1ccccc1.[Cl-].[Cl][Ru]([Cl])[PH]12CN3CN(CN(C3)C1)C2 [Compound 3],463 ± 19 µM
3,Cc1ccc(C(C)C)cc1.[Br][Ru]([Br])[PH]12CN3CN(CN(C3)C1)C2 [Compound 6],376 ± 15 µM
4,Cc1ccccc1.[Cl][Ru]([Cl])[PH](c1ccccc1)(c1ccccc1)c1ccccc1 [Compound 9],304 ± 19 µM

# Same assay, conditions: 72 h exposure, MTT; read-out: IC50 (μM) (average ± standard deviation) 72 h MCF-7
row,SMILES,IC50
1,Cc1c(C)c(C)[c-](C)c1C.[Cl][Ru+]([PH]12CN3CN(CN(C3)C1)C2)[PH]12CN3CN(CN(C3)C1)C2 [Compound 2],51 ± 6 µM
2,C[NH+](C)Cc1ccccc1.[Cl-].[Cl][Ru]([Cl])[PH]12CN3CN(CN(C3)C1)C2 [Compound 3],51 ± 4 µM
3,Cc1ccc(C(C)C)cc1.[Br][Ru]([Br])[PH]12CN3CN(CN(C3)C1)C2 [Compound 6],74 ± 7 µM
4,Cc1ccccc1.[Cl][Ru]([Cl])[PH](c1ccccc1)(c1ccccc1)c1ccccc1 [Compound 9],52 ± 7 µM

# System: MDA-MB-231
# Assay: MTT cytotoxicity assay, MDA-MB-231 cells
# Format: cell-based, human
# Details: 24 h exposure, MTT; read-out: IC50 (µM) (average ± standard deviation) 24 h MDA-MB-231
# Description: as §1, §2, §3, §4, §5
row,SMILES,IC50
1,Cc1c(C)c(C)[c-](C)c1C.[Cl][Ru+]([PH]12CN3CN(CN(C3)C1)C2)[PH]12CN3CN(CN(C3)C1)C2 [Compound 2],286 ± 7 µM
2,C[NH+](C)Cc1ccccc1.[Cl-].[Cl][Ru]([Cl])[PH]12CN3CN(CN(C3)C1)C2 [Compound 3],357 ± 7 µM
3,Cc1ccc(C(C)C)cc1.[Br][Ru]([Br])[PH]12CN3CN(CN(C3)C1)C2 [Compound 6],388 ± 12 µM
4,Cc1ccccc1.[Cl][Ru]([Cl])[PH](c1ccccc1)(c1ccccc1)c1ccccc1 [Compound 9],164 ± 2 µM

# Same assay, conditions: 72 h exposure, MTT; read-out: IC50 (μM) (average ± standard deviation) 72 h MDA-MB-231
row,SMILES,IC50
1,Cc1c(C)c(C)[c-](C)c1C.[Cl][Ru+]([PH]12CN3CN(CN(C3)C1)C2)[PH]12CN3CN(CN(C3)C1)C2 [Compound 2],63 ± 3 µM
2,C[NH+](C)Cc1ccccc1.[Cl-].[Cl][Ru]([Cl])[PH]12CN3CN(CN(C3)C1)C2 [Compound 3],60 ± 3 µM
3,Cc1ccc(C(C)C)cc1.[Br][Ru]([Br])[PH]12CN3CN(CN(C3)C1)C2 [Compound 6],63 ± 5 µM
4,Cc1ccccc1.[Cl][Ru]([Cl])[PH](c1ccccc1)(c1ccccc1)c1ccccc1 [Compound 9],44 ± 3 µM

# System: not listed separately
# Assay: Solubility in water (ICP-MS)
# Details: 25 °C, limit of detection = 5 ppt
# Description: sonication, the mixtures were stirred at 25 °C for 1 h. The saturated solutions were filtered
# to remove any insoluble solids, dissolved in 0.5 mL of MilliQ water, and analyzed using
# ICP-MS. Samples were submitted to acidic digestion with 2 mL of concentrated HNO3
# (DigiPREP Jr. 15ml, 40 Pos, SCP Science). The digestion program was the following: 15
# min to heat to 100°C and keep at 100°C for 60 min. After the digestion, the sample
# volumes were precisely adjusted to 5 mL with MilliQ water. Samples were further diluted
# 30 times with 2% HNO3 solution and their Ru content was analyzed by ICP-MS using
# standard mode on NexIon 350 D ICP-MS instrument (PerkinElmer). Yttrium was added
# as an internal standard at a concentration of 2 ppb to all the solution and Ru quantitation
# was performed using an external calibration curve with standards in the 0.05-50 ppb
# range. All measurements were performed in triplicates.
SMILES,Solubility (μM),Solubility (μg/mL)
Cc1ccccc1.[Cl][Ru]([Cl])[PH](c1ccccc1)(c1ccccc1)c1ccccc1 [Compound 9],65 ± 8 µM,34 ± 4 µg/mL
